Experimental data published in the supplement of paper PMC8920030.

Legend:
Conditions in all cases: growth mode: biofilm, 24 h; exposure time: 24 h
[1] = compound: T1, CCC(C)CCCC(=O)N[C@@H](CCN)C(=O)N[C@H](C(=O)N[C@@H](CCN)C(=O)N[C@H]1CCNC(=O)[C@H]([C@@H](C)O)NC(=O)[C@H](CCN)NC(=O)[C@H](CCN)NC(=O)[C@H](CC(C)C)NC(=O)[C@@H](CC(C)C)NC(=O)[C@H](CCN)NC1=O)[C@@H](C)O [colistin]; test: minimum concentration of killing, 2-log CFU reduction of biofilm (MCK99); higher = more biofilm tolerance
Method: (§1)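 Clinical P. aeruginosa isolates were grown as static biofilms for 24 h at 37 °C in LB in half-area 96-well plates, then exposed for 24 h to colistin at 1, 4, 16, 64, 256 or […]. Surviving CFU were counted by spotting serial dilutions. MCK is the lowest tested concentration giving the stated log reduction in CFU versus an untreated control; '>1024' means the reduction was not reached at the top dose, and 1 is the lowest dose tested (≤1).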

[2] = compound: T2, NC[C@H]1O[C@H](O[C@H]2[C@H](O)[C@@H](O[C@H]3O[C@H](CO)[C@@H](O)[C@H](N)[C@H]3O)[C@H](N)C[C@@H]2N)[C@H](N)C[C@@H]1O [tobramycin]; test: as above
Method: as §1, with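 “tobramycin” for “colistin”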

[3] = compound: T1, colistin; test: minimum concentration of killing, 4-log CFU reduction of biofilm (MCK99.99); higher = more biofilm tolerance
Method: as §1

[4] = compound: T1, colistin; test: minimum concentration of killing, 1-log CFU reduction of biofilm (MCK90); higher = more biofilm tolerance
Method: as §1

[5] = compound: T2, tobramycin; test: as above
Method: as §1, with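 “tobramycin” for “colistin”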

[6] = compound: T2, tobramycin; test: minimum concentration of killing, 4-log CFU reduction of biofilm (MCK99.99); higher = more biofilm tolerance
Method: as §1, with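 “tobramycin” for “colistin”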

[7] = compound: T2, tobramycin; test: minimum concentration eradicating biofilm below detection limit (MCK-E); higher = more biofilm tolerance
Method: as §1, with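 “tobramycin” for “colistin”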

[8] = compound: T1, colistin; test: as above
Method: as §1

| Test System | minimum concentration of killing [1] | minimum concentration of killing [2] | minimum concentration of killing [3] | minimum concentration of killing [4] | minimum concentration of killing [5] | minimum concentration of killing [6] | minimum concentration eradicating biofilm below detection limit [7] | minimum concentration eradicating biofilm below detection limit [8] |
| --- | --- | --- | --- | --- | --- | --- | --- | --- |
| Pseudomonas aeruginosa clinical isolate ESP020 | 256 µg/mL | 256 µg/mL | 256 µg/mL | 64 µg/mL | 4 µg/mL | 256 µg/mL | 256 µg/mL | 256 µg/mL |
| Pseudomonas aeruginosa clinical isolate ESP021 | 64 µg/mL | 4 µg/mL | 256 µg/mL | 16 µg/mL | 4 µg/mL | 64 µg/mL | 64 µg/mL | 256 µg/mL |
| Pseudomonas aeruginosa clinical isolate ESP022 | 256 µg/mL | 16 µg/mL | 256 µg/mL | 256 µg/mL | 16 µg/mL | 16 µg/mL | 256 µg/mL | 256 µg/mL |
| Pseudomonas aeruginosa clinical isolate ESP023 | 64 µg/mL | 16 µg/mL | 64 µg/mL | 64 µg/mL | ≤ 1 µg/mL | 16 µg/mL | 16 µg/mL | 64 µg/mL |
| Pseudomonas aeruginosa clinical isolate ESP024 | 4 µg/mL | 4 µg/mL | 256 µg/mL | 4 µg/mL | ≤ 1 µg/mL | 16 µg/mL | 64 µg/mL | 256 µg/mL |
| Pseudomonas aeruginosa clinical isolate ESP025 | 16 µg/mL | > 1020 µg/mL | 16 µg/mL | 16 µg/mL | 1020 µg/mL | > 1020 µg/mL | > 1020 µg/mL | 64 µg/mL |
| Pseudomonas aeruginosa clinical isolate ESP027 | 64 µg/mL | 4 µg/mL | 64 µg/mL | 16 µg/mL | ≤ 1 µg/mL | 1020 µg/mL | 1020 µg/mL | 64 µg/mL |
| Pseudomonas aeruginosa clinical isolate ESP028 | 256 µg/mL | 256 µg/mL | 256 µg/mL | 256 µg/mL | 16 µg/mL | 1020 µg/mL | 1020 µg/mL | 256 µg/mL |
| Pseudomonas aeruginosa clinical isolate ESP029 | 256 µg/mL | 4 µg/mL | 256 µg/mL | 256 µg/mL | 4 µg/mL | 256 µg/mL | 256 µg/mL | 256 µg/mL |
| Pseudomonas aeruginosa clinical isolate ESP031 | 256 µg/mL | 1020 µg/mL | 256 µg/mL | 256 µg/mL | 1020 µg/mL | 1020 µg/mL | 1020 µg/mL | 256 µg/mL |
| Pseudomonas aeruginosa clinical isolate ESP032 | 256 µg/mL | 256 µg/mL | 256 µg/mL | 256 µg/mL | 256 µg/mL | 1020 µg/mL | > 1020 µg/mL | 256 µg/mL |
| Pseudomonas aeruginosa clinical isolate ESP033 | 256 µg/mL | 64 µg/mL | 256 µg/mL | 256 µg/mL | 16 µg/mL | 64 µg/mL | 256 µg/mL | 256 µg/mL |
| Pseudomonas aeruginosa clinical isolate ESP034 | 256 µg/mL | 16 µg/mL | 256 µg/mL | 256 µg/mL | 4 µg/mL | 1020 µg/mL | 1020 µg/mL | 256 µg/mL |
| Pseudomonas aeruginosa clinical isolate ESP035 | 256 µg/mL | 256 µg/mL | 256 µg/mL | 64 µg/mL | 256 µg/mL | 256 µg/mL | 1020 µg/mL | 256 µg/mL |
| Pseudomonas aeruginosa clinical isolate ESP036 | 256 µg/mL | 4 µg/mL | 256 µg/mL | 256 µg/mL | ≤ 1 µg/mL | 16 µg/mL | 64 µg/mL | 256 µg/mL |
| Pseudomonas aeruginosa clinical isolate ESP037 | 64 µg/mL | 4 µg/mL | 64 µg/mL | 64 µg/mL | 4 µg/mL | 64 µg/mL | 256 µg/mL | 64 µg/mL |
| Pseudomonas aeruginosa clinical isolate ESP038 | 64 µg/mL | 4 µg/mL | 256 µg/mL | 64 µg/mL | ≤ 1 µg/mL | 4 µg/mL | 64 µg/mL | 256 µg/mL |
| Pseudomonas aeruginosa clinical isolate ESP039 | 64 µg/mL | 16 µg/mL | 64 µg/mL | 64 µg/mL | 4 µg/mL | 64 µg/mL | 256 µg/mL | 64 µg/mL |
